Laboratory results published in patent US20230157952A1, “METHOD FOR IMPROVING THE STABILITY OF A PHARMACEUTICAL COMPOSITION COMPRISING A HIGH PENETRATION DRUG, AND THE PHARMACEUTICAL COMPOSITION OBTAINED THEREFROM” (Techfields Inc., priority 2020, published 2023).

Experiment: Effect of temperature (and pH) on the stability of the solution (purity)
Format: physicochemical

Structure (SMILES) | Purity (%) at day 21 (60° C.) (pH 1.02, 7% solution in water) | Purity(%) at day 21 (5° C.) (pH 1.02, 7% solution in water) | Purity(%) at day 21 (25° C.) (pH 1.02, 7% solution in water) | Purity(%) at day 21 (40° C.) (pH 1.02, 7% solution in water) | Purity (%) at day 21 (60° C.) (pH 2.09, 7% solution in water) | Purity(%) at day 21 (25° C.) (pH 2.09, 7% solution in water) | Purity(%) at day 21 (40° C.) (pH 2.09, 7% solution in water) | Purity (%) at day 21 (60° C.) (pH 3.68, 7% solution in water) | Purity(%) at day 21 (40° C.) (pH 3.68, 7% solution in water) | Purity (%) at day 21 (60° C.) (pH 4.07, 7% solution in water) | Purity(%) at day 21 (40° C.) (pH 4.07, 7% solution in water) | Purity (%) at day 21 (60° C.) (pH 4.35, 7% solution in water) | Purity(%) at day 21 (40° C.) (pH 4.35, 7% solution in water) | Purity (%) at day 21 (60° C.) (pH 4.67, 7% solution in water) | Purity(%) at day 21 (40° C.) (pH 4.67, 7% solution in water) | Purity (%) at day 21 (60° C.) (pH 5.98, 7% solution in water) | Purity(%) at day 21 (5° C.) (pH 5.98, 7% solution in water) | Purity(%) at day 21 (25° C.) (pH 5.98, 7% solution in water) | Purity(%) at day 21 (40° C.) (pH 5.98, 7% solution in water) | Purity (%) at day 21 (60° C.) (pH 8.01, 7% solution in water) | further results
CCN(CC)CCOC(=O)[C@H](C)c1ccc(CC(C)C)cc1.Cl | 0% | 93.1 ± 0.3% | 70.7 ± 0.4% | 18.5 ± 0.3% | 0% | 86.0 ± 0.4% | 30.6 ± 0.4% | 16.0 ± 0.4% | 64.1 ± 0.5% | 22.7 ± 0.4% | 72.6 ± 0.4% | 18.3 ± 0.3% | 72.6 ± 0.5% | 10.4 ± 0.5% | 58.3 ± 0.4% | 0% | 95.8 ± 0.4% | 90.2 ± 0.4% | 29.9 ± 0.4% | 0% | Purity(%) at day 21 (5° C.) (pH 2.09, 7% solution in water): 97.0 ± 0.4%; Purity (%) at day 21 (60° C.) (pH 3.01, 7% solution in water): 8.4 ± 0.3%; Purity(%) at day 21 (25° C.) (pH 3.01, 7% solution in water): 96.1 ± 0.3%; Purity(%) at day 21 (40° C.) (pH 3.01, 7% solution in water): 56.1 ± 0.4%; Purity(%) at day 21 (25° C.) (pH 4.67, 7% solution in water): 97.5 ± 0.4%; Purity (%) at day 21 (60° C.) (pH 4.96, 7% solution in water): 4.0 ± 0.3%; Purity(%) at day 21 (5° C.) (pH 4.96, 7% solution in water): 97.0 ± 0.4%; Purity(%) at day 21 (25° C.) (pH 4.96, 7% solution in water): 95.1 ± 0.4%; Purity(%) at day 21 (40° C.) (pH 4.96, 7% solution in water): 50.5 ± 0.5%; Purity (%) at day 21 (60° C.) (pH 6.99, 7% solution in water): 0%; Purity(%) at day 21 (5° C.) (pH 6.99, 7% solution in water): 90.0 ± 0.5%; Purity(%) at day 21 (25° C.) (pH 6.99, 7% solution in water): 77.1 ± 0.4%; Purity(%) at day 21 (40° C.) (pH 6.99, 7% solution in water): 19.9 ± 0.4%; Purity(%) at day 0 (pH 8.01, 7% solution in water): 97.6 ± 0.5%; Purity(%) at day 21 (5° C.) (pH 8.01, 7% solution in water): 81.1 ± 0.5%; Purity(%) at day 21 (25° C.) (pH 8.01, 7% solution in water): 52.3 ± 0.4%; Purity(%) at day 21 (40° C.) (pH 8.01, 7% solution in water): 0%
CCN(CC)CCOC(=O)[C@H](C)c1ccc2cc(OC)ccc2c1.Cl (racemic) | 0% | 93.8 ± 0.2% | 72.2 ± 0.2% | 18.1 ± 0.3% | 0% | 86.3 ± 0.2% | 30.2 ± 0.4% | 15.3 ± 0.4% | 63.7 ± 0.2% | 21.5 ± 0.3% | 72.5 ± 0.3% | 18.7 ± 0.2% | 72.3 ± 0.2% | 10.6 ± 0.2% | 58.5 ± 0.2% | 0% | 96.1 ± 0.2% | 90.7 ± 0.3% | 30.3 ± 0.3% | 0% | Purity (%) at day 21 (60° C.) (pH 3.00, 7% solution in water): 7.9 ± 0.2%; Purity(%) at day 21 (25° C.) (pH 3.00, 7% solution in water): 96.3 ± 0.2%; Purity(%) at day 21 (40° C.) (pH 3.00, 7% solution in water): 56.7 ± 0.2%; Purity (%) at day 21 (60° C.) (pH 4.95, 7% solution in water): 3.1 ± 0.3%; Purity(%) at day 21 (25° C.) (pH 4.95, 7% solution in water): 95.5 ± 0.3%; Purity(%) at day 21 (40° C.) (pH 4.95, 7% solution in water): 50.6 ± 0.2%; Purity (%) at day 21 (60° C.) (pH 6.98, 7% solution in water): 0%; Purity(%) at day 21 (5° C.) (pH 6.98, 7% solution in water): 90.9 ± 0.2%; Purity(%) at day 21 (25° C.) (pH 6.98, 7% solution in water): 70.8 ± 0.2%; Purity(%) at day 21 (40° C.) (pH 6.98, 7% solution in water): 19.9 ± 0.3%; Purity(%) at day 21 (5° C.) (pH 8.01, 7% solution in water): 81.9 ± 0.2%; Purity(%) at day 21 (25° C.) (pH 8.01, 7% solution in water): 58.8 ± 0.2%; Purity(%) at day 21 (40° C.) (pH 8.01, 7% solution in water): 0%
